Measurements: the NIST ThermoML archive (doi:10.1016/j.jct.2013.09.007)
± gives the expanded uncertainty stated by the source.

Assay: activity coefficient (dimensionless); of the first substance listed, at infinite dilution; xn = mol fraction of the nth substance listed
Conditions: 101 kPa, Liquid, Chromatography, x1 = 0

SMILES	activity coefficient (338.15 K)	activity coefficient (348.15 K)	activity coefficient (358.15 K)	activity coefficient (368.15 K)	activity coefficient (308.15 K)	activity coefficient (318.15 K)	activity coefficient (328.15 K)
O=C1CCCCC1 [cyclohexanone] + CCCC[n+]1cccc(C)c1.N#C[N-]C#N	0.928 ± 0.059	0.96 ± 0.06	0.988 ± 0.062	1.01 ± 0.06	–	–	–
C1=CCCCC1 [cyclohexene] + CCCC[n+]1cccc(C)c1.N#C[N-]C#N	8.27 ± 0.56	7.99 ± 0.54	7.76 ± 0.53	7.54 ± 0.51	9.2 ± 0.63	8.87 ± 0.61	8.55 ± 0.58
C1CCCCCCC1 [cyclooctane] + CCCC[n+]1cccc(C)c1.N#C[N-]C#N	27.8 ± 1.9	25.8 ± 1.8	24.2 ± 1.7	22.7 ± 1.6	35.1 ± 2.4	32 ± 2.2	29.7 ± 2
C1CCCC1 [cyclopentane] + CCCC[n+]1cccc(C)c1.N#C[N-]C#N	12.6 ± 0.9	11.9 ± 0.8	11.3 ± 0.8	10.9 ± 0.7	15.1 ± 1	14.2 ± 1	13.4 ± 0.9
CCCCCCCCCC [decane] + CCCC[n+]1cccc(C)c1.N#C[N-]C#N	198 ± 14	179 ± 12	163 ± 11	149 ± 10	275 ± 19	244 ± 17	219 ± 15
CCOCC [diethyl ether] + CCCC[n+]1cccc(C)c1.N#C[N-]C#N	6.26 ± 0.43	6.22 ± 0.42	6.19 ± 0.42	6.15 ± 0.42	6.37 ± 0.43	6.33 ± 0.43	6.29 ± 0.43
CCCOCCC [dipropyl ether] + CCCC[n+]1cccc(C)c1.N#C[N-]C#N	16.6 ± 1.1	16.3 ± 1.1	15.6 ± 1.1	15.2 ± 1	18.3 ± 1.3	17.7 ± 1.2	17.2 ± 1.2
CCO [ethanol] + CCCC[n+]1cccc(C)c1.N#C[N-]C#N	0.549 ± 0.04	0.545 ± 0.04	0.541 ± 0.04	0.537 ± 0.039	–	–	–
CCc1ccccc1 [ethylbenzene] + CCCC[n+]1cccc(C)c1.N#C[N-]C#N	3.26 ± 0.22	3.32 ± 0.23	3.35 ± 0.23	3.41 ± 0.23	–	–	3.21 ± 0.22
CCCCCCC [heptane] + CCCC[n+]1cccc(C)c1.N#C[N-]C#N	64.3 ± 4.4	59.4 ± 4.1	55.4 ± 3.8	51.7 ± 3.5	82.8 ± 5.7	75.7 ± 5.2	69.9 ± 4.8
C=CCCCC [hex-1-ene] + CCCC[n+]1cccc(C)c1.N#C[N-]C#N	19.5 ± 1.3	18.7 ± 1.3	17.8 ± 1.2	17.1 ± 1.2	22.4 ± 1.5	21.4 ± 1.5	20.4 ± 1.4
CCCCCC [hexane] + CCCC[n+]1cccc(C)c1.N#C[N-]C#N	44.3 ± 3	41.3 ± 2.8	38.6 ± 2.6	36 ± 2.5	56.1 ± 3.8	51.7 ± 3.5	47.8 ± 3.3
CC1CCCCC1 [methylcyclohexane] + CCCC[n+]1cccc(C)c1.N#C[N-]C#N	27.3 ± 1.9	25.5 ± 1.7	23.9 ± 1.6	22.6 ± 1.5	34.1 ± 2.3	31.5 ± 2.2	29.3 ± 2
CCCCCCCCC [nonane] + CCCC[n+]1cccc(C)c1.N#C[N-]C#N	134 ± 9	122 ± 8	112 ± 8	103 ± 7	182 ± 13	162 ± 11	148 ± 10
